From patent publication US10626349B2, “Cleavable surfactants” (PROMEGA CORPORATION, priority 2007, dated 2020)
Entries after “also recorded” stand apart in the source; their conditions may differ.

Key:
[1] = Acid and thermal degradation of the surfactant; details: for time to degradation in 0.5% TFA: 0.1% solution for 3220 and 3266
[2] = biological target: T1, Myoglobin from horse heart digested with trypsin (Equus caballus, UniProt P68082); assay: Myoglobin/Trypsin digest, HPLC peak area versus RapiGest control; type: biochemical; details: 0.01% surfactant, trypsin 50:1, 20 minutes at 37° C.; ratio to RapiGest control, >1 = more digestion
T1 construct: Myoglobin from horse heart; from tissue; host or cells: horse heart
T1 sequence (P68082 2-154 limits assumed): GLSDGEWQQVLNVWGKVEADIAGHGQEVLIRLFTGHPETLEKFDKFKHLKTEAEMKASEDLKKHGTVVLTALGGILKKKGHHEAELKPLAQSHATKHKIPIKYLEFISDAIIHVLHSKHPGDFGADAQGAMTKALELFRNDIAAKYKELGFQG
Protocol: Myoglobin from horse heart (typically 25 μs) was digested with trypsin (Promega) at a 50:1 ratio in a volume of 125 μL (typical) of 50 mM Ammonium bicarbonate for 20 minutes at 37° C. with 0.01% RapiGest™ surfactant or 0.01% of the indicated compound of the invention (upper and lower chromatograms, respectively). TFA was added to 0.5-2% and the mixtures were incubated at 37° C. or 65° C. for 20 or 30 minutes. Degraded surfactant was removed by centrifugation at 14,000×g for 5 minutes. HPLC analysis was performed on a 25-50 μL reaction sample using an HP1050 LC system with an Agilent Sorbax SB-C18 column (3.0×100 mm, 3.5 micron) and a gradient of 0.1% TFA (97.5% initial) and Acetonitrile, 0.01% TFA (55% final condition followed by a 100% wash step) and a flow rate of 0.75 mL/min. Peptides were detected at 214 and 280 nm.
(§1) For each compound numbered below in Example 12, the rate of enhanced digestion was determined from the ratio of the surfactant peak area (surfactant # Pk. Area) to the Rapigest™ surfactant peak area (RG Pk area). Peak area was determined as the sum of all peaks integrated from 8-22 minutes.

[3] = biological target: trypsin (Sus scrofa, UniProt P00761); assay: Trypsin activity measured as rate of BAEE cleavage; type: biochemical; details: standard digestion conditions
Chain of trypsin (P00761 9-231): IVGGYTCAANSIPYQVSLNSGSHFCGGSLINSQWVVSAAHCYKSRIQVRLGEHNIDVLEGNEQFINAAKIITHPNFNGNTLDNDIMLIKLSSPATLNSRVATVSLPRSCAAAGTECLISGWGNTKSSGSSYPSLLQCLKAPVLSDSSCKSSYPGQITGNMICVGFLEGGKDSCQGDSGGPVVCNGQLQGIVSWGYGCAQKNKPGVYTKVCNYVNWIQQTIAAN
From the text: Compound 3116 can be used as an acid-labile surfactant to facilitate the solubilization and denaturation of a protein or peptide. Compound 3116 stabilizes proteases and enhances the proteolysis activity of trypsin. See FIG. 2, which illustrates the effect of compound 3116 on trypsin activity.

[4] = biological target: T2, Bacteriorhodopsin digested with chymotrypsin (Halobacterium salinarum, UniProt P02945); assay: Bacteriorhodopsin/Chymotrypsin digest, HPLC peak area versus RapiGest control; type: biochemical; details: 0.025% surfactant
T2 sequence (P02945 14-261 limits assumed): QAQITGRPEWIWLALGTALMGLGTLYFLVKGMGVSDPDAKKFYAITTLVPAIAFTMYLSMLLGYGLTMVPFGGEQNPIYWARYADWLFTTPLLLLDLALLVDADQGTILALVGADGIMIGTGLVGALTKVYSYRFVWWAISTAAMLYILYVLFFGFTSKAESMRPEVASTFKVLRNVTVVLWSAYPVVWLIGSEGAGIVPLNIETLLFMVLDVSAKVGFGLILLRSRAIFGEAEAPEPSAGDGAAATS
Protocol: Bacteriorhodopsin (25 μs) was heated with 0.025% Rapigest™ surfactant or the indicated compound of the invention for 5 minutes at 95° C., then digested with chymotrypsin (Sigma) at a 10:1 ratio in 125 μL 50 mM Ammonium bicarbonate for 1 hour at 37° C. After one hour TFA was added to 0.5-2% and the mixtures were incubated at 37° C. or 65° C. for 20 or 30 minutes. Degraded surfactant was removed by centrifugation at 14,000×g for 5 minutes. An aliquot of 50-100 μL of digested protein was analyzed by HPLC as described above.
Compound 3211, 3212, 3224 and Rapigest™ surfactant control for FIG. 13C reactions: Bacteriorhodopsin (25 μs) was solubilized with 0.025% compound of interest for 1-2 minutes at room temperature, then digested with chymotrypsin (Sigma) at a 10:1 ratio in 125 μL 50 mM Ammonium bicarbonate for 1 hour at 37° C. After one hour TFA was added to 0.5-2% and the mixtures were incubated at 37° C. or 65° C. for 20 or 30 minutes. Degraded surfactant was removed by centrifugation at 14,000×g for 5 minutes. An aliquot of 50-100 μL of digested protein was analyzed by HPLC as described above.
as §1

[5] = Solubility of the surfactant; details: for solubility in aqueous solutions (concentration dissolved to): aqueous solution; for solubility (concentration dissolved to): in 50 mM ammonium bicarbonate
[6] = biological target: Horse myoglobin digested with trypsin (Equus caballus, UniProt P68082); assay: One hour digestion of myoglobin with trypsin (HPLC); type: biochemical; details: for digestion of myoglobin in one hour (in words): trypsin, 3116: 0.01%, 50:1, one hour at 37° C.
Chain of Horse myoglobin digested with trypsin (P68082 2-154 limits assumed): as the sequence (P68082 2-154 limits assumed) above
Protocol: For example, digestion of myoglobin using standard protocol requires overnight digestion. […] Horse myoglobin was digested with trypsin at a 50:1 ratio for one hour at 37° C., alone and separately in the presence of 0.01% compound 3116.
The peaks in FIG. 3A and FIG. 3B indicate peptides or partial digestion fragments.

[7] = biological target: T3, beta subunit of mouse ATP synthase (Mus musculus, UniProt P56480); assay: In-gel trypsin digestion of 56 kD band of mouse heart membrane protein, mass spectrometry; type: biochemical
T3 construct: Total membrane protein from mouse heart was resolved in SDS-polyacrylamide gel; from tissue; host or cells: mouse heart, total membrane protein, 56 kD SDS-PAGE band
T3 sequence (P56480 47-529): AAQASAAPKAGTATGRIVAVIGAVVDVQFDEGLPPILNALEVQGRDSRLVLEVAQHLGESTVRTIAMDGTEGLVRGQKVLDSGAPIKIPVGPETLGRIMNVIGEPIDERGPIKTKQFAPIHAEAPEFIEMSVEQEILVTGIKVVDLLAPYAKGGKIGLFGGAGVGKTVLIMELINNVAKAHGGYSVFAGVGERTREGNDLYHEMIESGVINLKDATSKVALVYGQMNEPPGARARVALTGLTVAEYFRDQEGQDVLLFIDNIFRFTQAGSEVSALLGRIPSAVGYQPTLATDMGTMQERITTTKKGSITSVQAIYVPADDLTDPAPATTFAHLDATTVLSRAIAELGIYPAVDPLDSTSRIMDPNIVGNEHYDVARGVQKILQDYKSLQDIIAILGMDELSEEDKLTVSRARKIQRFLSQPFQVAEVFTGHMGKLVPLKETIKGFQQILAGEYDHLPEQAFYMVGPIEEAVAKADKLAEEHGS
Protocol: 13. Rehydrate for 5 minutes in 20 μL 12 ng/μL Trypsin Gold (in 0.025% surfactant A/50 mM […] AmBic). Overlay with 30 μL of 0.01% surfactant A/50 mM AmBic to cover gel pieces. Incubate 1 hour at 50° C.
Total membrane protein from mouse heart was resolved in SDS-polyacrylamide gel and a single protein band was digested with a conventional digestion protocol (control) and separately with a compound 3211-assisted protocol.
A band of the protein with an approximate MW of 56 kD was excised and digested with trypsin. The digested samples were analyzed by mass spectrometry. […] Asterisks indicate identified peptides for beta subunit of mouse ATP synthase (the major protein in 56 kD band).

[8] = Hydrolytic stability in 50 mM ammonium bicarbonate (reverse-phase HPLC); type: physicochemical; set-up: key: >>: compound 100% stable over course of experiment
Protocol: Hydrolytic stability was measured by monitoring the change in retention time of the intact surfactant by reverse-phase HPLC. The ½-life is defined as the time required to reach 50% degradation.

[9] = Stability and degradation profile of surfactant 3211 solutions; type: physicochemical
Protocol: FIG. 1 illustrates the degradation profile of a 0.025% solution of surfactant 3211 at 40° C., according to one embodiment.
For example, degradation of surfactant compound 3211 after protein digestion is not required because the surfactant degrades during the digestion process. The stability of a 1% solution of 3211 (10% degradation) is 8 hours at 23° C., 12 days at 4° C., and an estimated >3 years at −20° C. However, the degradation rate of surfactant 3211 increases in a typical protein digestion protocol. […] Less than about 5% of intact surfactant remains after only 2 hours.

[10] = biological target: T2, Bacteriorhodopsin digested with chymotrypsin; assay: Bacteriorhodopsin/Chymotrypsin digest, HPLC peak area versus RapiGest control; type: biochemical; details: at 0.1% surfactant, BR boiled with surfactant, chymotrypsin 10:1
[11] = biological target: T4, Ovalbumin (albumin from chicken egg white) treated with PNGase F (Gallus gallus, UniProt P01012); assay: Deglycosylation of ovalbumin with PNGase F (SDS-PAGE); type: biochemical; details: 0.025% surfactant, 1 hour and 20 minutes at 37° C.
T4 construct: Ovalbumin (albumin from chicken egg white); purchased Sigma
T4 sequence (P01012 2-386 limits assumed): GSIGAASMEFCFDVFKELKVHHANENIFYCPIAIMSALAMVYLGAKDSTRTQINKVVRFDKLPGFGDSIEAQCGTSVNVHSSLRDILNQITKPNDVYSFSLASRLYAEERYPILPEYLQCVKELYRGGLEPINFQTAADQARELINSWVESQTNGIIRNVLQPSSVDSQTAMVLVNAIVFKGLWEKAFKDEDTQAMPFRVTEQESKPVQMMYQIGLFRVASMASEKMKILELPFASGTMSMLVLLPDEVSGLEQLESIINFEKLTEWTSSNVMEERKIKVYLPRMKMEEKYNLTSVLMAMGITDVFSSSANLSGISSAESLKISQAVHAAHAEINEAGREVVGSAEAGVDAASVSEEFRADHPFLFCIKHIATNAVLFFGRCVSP
Protocol: Surfactants described herein were evaluated as replacements for SDS in deglycolsylation protocols. Ovalbumin (albumin from chicken egg white) was selected as a model protein. Ovalbumin is a 44.3 kD glycoprotein with 1.4 kD carbohydrate units linked to the protein. […] Surfactant compound 3266 is acid-labile and it can be easily degraded, allowing for analysis of the protein and carbohydrate using mass spectrometric analysis.
Ovalbumin (Sigma) (45 μg) was dissolved in 0.025% 3266/5 mM DTT/25 mM ammonium bicarbonate (pH ˜8) and incubated at 95° C. for 5 minutes. In the control reaction, 3266 was replaced with SDS. Deglycosylation was initiated by adding 1.5μ units PNGase F (Sigma). After 1 hour and 20 minutes of incubation at 37° C., the reactions were terminated by incubation at 95° C. for 5 minutes and an aliquot from each reaction was resolved with SDS-PAGE. […] The analyses indicate that compound 3266 is equivalent to the deglycosylation enhancement found using SDS, while eliminating the deleterious effects of SDS in concomitant spectrometric and chromatographic analysis.

[12] = 1 hour in-gel digestion with surfactant
[13] = surfactant conc. 0.025% in 50 mM ammonium bicarbonate
[14] = surfactant conc. 1% in 50 mM ammonium bicarbonate

For CCCCCCCCCCCC(C)(C)OC(=O)NCCCS(=O)(=O)O [Compound 3116], the “time to degradation of 0.01% solution” value ([1]; 0.01% solution, 37° C. where stated) was at most 2 h, the “surfactant Pk area/RG Pk area, Myoglobin/Trypsin digest” value [2] was 0.6 and the “effect on trypsin activity (in words)” value [3] was “stabilized trypsin activity”. The “surfactant Pk area/RG Pk area, Bacteriorhodopsin/Chymotrypsin digest” value ([4]; BR heated (boiled) with surfactant 5 minutes at 95° C., chymotrypsin 10:1, 1 hour at 37° C., ratio to RapiGest control) was 1.5, the “solubility in aqueous solutions (concentration dissolved to)” value [5] was at least 0.5% and the “identifiable peaks in HPLC chromatogram of myoglobin digest” value ([6]; 0.01% 3116, trypsin 50:1, one hour at 37° C.) was over 15. The “digestion of myoglobin in one hour (in words)” value [6] was “largely digested within one hour”.

In the case of CCCCCCCCCCC(OC(=O)NCCCS(=O)(=O)O)c1ccco1 (stereo not drawn) [Compound 3211], the “time to degradation in 0.5% TFA” value ([1]; 37° C. where stated) is reported as 15 min, the “time to degradation by boiling without TFA” value ([1]; boiling without TFA) is reported as 5 min and the “degradation at room temperature (in words)” value ([1]; room temperature) is reported as “degrades even at room temperature at a substantial rate”. The “surfactant Pk area/RG Pk area, Myoglobin/Trypsin digest” value [2] was 1.3, the “surfactant Pk area/RG Pk area, Bacteriorhodopsin/Chymotrypsin digest” value ([4]; BR solubilized at room temperature (not boiled), RapiGest control boiled) was 0.9 and the “solubility (concentration dissolved to)” value [5] was 1%. For the same molecule, the “increase in sequence coverage versus protocol without surfactant” value [7] was 50%, the “MASCOT score for beta subunit of ATP synthase” value [7, 12] was 920 and the “sequence coverage for beta subunit of ATP synthase” value [7, 12] was 75%. For the same molecule, the ½-life ([8]; 0.025%/20% AcN) was 6 h, the ½-life ([8]; 0.025%/40% AcN) was 52 h and the ½-life ([8]; 0.025%/60% AcN) was over 100 h. The ½-life ([8]; 0.025%/80% AcN) was “>>”, the ½-life ([8]; 1%/50% AcN) was over 100 h and the ½-life ([8]; surfactant conc. 0.0025% in 50 mM ammonium bicarbonate) was 0.5 h. The ½-life [8, 13] was 1.1 h, the ½-life ([8]; surfactant conc. 0.10% in 50 mM ammonium bicarbonate) was 4.8 h and the ½-life [8, 14] was 21 h. The intact surfactant remaining ([9]; 0.025% solution at 40° C., after 2 hours) was “Less than 5%”, the “stability of a 1% solution (10% degradation)” value ([9]; 1% solution, 4° C.) was 12 days and the “stability of a 1% solution (10% degradation)” value ([9]; 1% solution, 23° C.) was 0.33 days. The “stability of a 1% solution (10% degradation), estimated” value ([9]; 1% solution, −20° C.) was over 3 years and the “digestion of myoglobin in one hour (in words)” value [6] was “complete digestion”.

With CCCCCCCCCCOc1ccc(C(OCCc2ccc(N(CCCCS(=O)(=O)[O-])CCCCS(=O)(=O)[O-])cc2)(c2ccccc2)c2ccccc2)cc1.[Na+].[Na+] [Compound 3214] the “surfactant Pk area/RG Pk area, Bacteriorhodopsin/Chymotrypsin digest” value [10] was 0.6 and the “solubility in aqueous solutions (concentration dissolved to)” value [5] was 1%.

In the case of CCCCCCCCCCCCC(OC(=O)NCCCS(=O)(=O)O)c1ccc(OC)c(OC)c1 (stereo not drawn) [Compound 3266], the “deglycosylation of ovalbumin by PNGase F (in words)” value [11] is reported as “rapidly removed carbohydrate from ovalbumin; also recorded: transformed into a deglycosylated 42.9 kD form”, the “time to degradation in 0.5% TFA” value ([1]; 37° C. where stated) is reported as at most 30 min and the “thermolability (in words)” value ([1]; 3266: 5 minutes at 95° C.) is reported as “not thermolabile”. For the same molecule, the “surfactant Pk area/RG Pk area, Myoglobin/Trypsin digest” value [2] was 1.2, the “solubility (concentration dissolved to)” value [5] was 2% and the ½-life [8, 13] was “>>”. For the same molecule, the ½-life ([8]; surfactant conc. 0.25% in 50 mM ammonium bicarbonate) was “>>” and the ½-life [8, 14] was “>>”.

For CCCCCCCCCCCCOS(=O)(=O)[O-].[Na+] [SDS, sodium dodecyl sulfate, reference compound], the “deglycosylation of ovalbumin by PNGase F (in words)” value [11] was “transformed into a deglycosylated 42.9 kD form” and the “effect on trypsin activity (in words)” value [3] was “inhibited trypsin activity within 30 minutes”.
